Where a SMILES comes first, the peptide text is derived from it.
Tests used:
[1] = tested on: human red blood cells (hRBC); type: cell-based; details: red cells of human, 1 h, 0.2 g/L
Procedure: (§1) Lyophilized peptides were weighed on a Microbalance (Mettler MT5) and dissolved in sterile water to a final concentration of 1 mg/mL. Stock solutions were kept at +4° C., light protected.
The peptides were tested for their hemolytic activity against human red blood cells (hRBC). Fresh hRBC were washed three times with phosphate buffered saline (PBS) and centrifuged for 5 min at 3000×g. Compounds (200 μg/mL) were incubated with 20% hRBC (v/v) for 1 h at 37° C. and shaking at 300 rpm. A value of 0% and 100% cell lyses, respectively, was determined by incubation of hRBC in the presence of PBS and 2.5% Triton X-100 in H2O, respectively. The samples were centrifuged, the supernatants were 8-fold diluted in PBS buffer and the optical densities (OD) were measured at 540 nm. The 100% lyses value (OD540H2O) gave an OD540 of approximately 0.5-1.0.
Percent hemolysis was calculated as follows: (OD540peptide/OD540H2O)×100%.

[2] = tested on: Klebsiella pneumoniae SSI3010; details: SSI3010
Procedure: as §1
(§2) Colonies of the microorganisms were diluted in saline (0.85%, NaCl) and adjusted using a McFarland reader (bioMérieux SA, Marcy-l'Etoile, France) to 0.5 McFarland standard. Subsequently, the bacterial suspension was diluted in Mueller-Hinton II (MHII, cation adjusted) broth to give approximately 5×10^5 colony forming units (CFU/mL).
(§3) 10^6 colony forming units (CFU)/mL. Aliquots (90 μl) of inoculate were added to 10 μl of water+P-80 (Polysorbate 80, 0.002% final concentration) containing the peptide in serial two-fold dilutions at 10 fold final concentration. The following microorganisms were used to determine antibiotic selectivity of the peptides: Escherichia coli ATCC 25922, Escherichia coli MCR-1 Af 45 and Klebsiella pneumoniae SSI3010.

[3] = tested on: Escherichia coli ATCC 25922; details: ATCC 25922
Procedure: as §1, §2, §3

[4] = tested on: Escherichia coli MCR-1 Af 45; details: Mueller-Hinton broth II, no visible growth after 18-20 hours at 35° C.
Procedure: as §1, §2, §3

CC[C@H](C)[C@H](NC(=O)[C@@H](NC(=O)[C@@H]1C[C@@H](O)CN1C(=O)[C@@H](N)C(C)C)[C@@H](C)CC)C(=O)N[C@@H](Cc1ccc(O)cc1)C(=O)N[C@@H]1C(=O)N[C@@H](CC(N)=O)C(=O)N[C@@H](CCCNC(=N)N)C(=O)N[C@@H](CCN)C(=O)N[C@@H](CO)C(=O)N[C@H](CCN)C(=O)N[C@@H](CCCCN)C(=O)N[C@H](C(=O)N[C@@H](CCN)C(=O)N[C@@H](CCN)C(=O)N[C@@H](Cc2ccc(O)cc2)C(=O)O)CSSC1(C)C [Example 76, Val-Hyp-Ile-Ile-Tyr-Pen-Asn-Arg-Dab-Ser-^DDab-Lys-Cys-Dab-Dab-Tyr] (HELM PEPTIDE1{V.[Hyp].I.I.Y.[Pen].N.R.[Dab].S.[NCC[C@@H](N[*:1])C(=O)[*:2]].K.C.[Dab].[Dab].Y}$PEPTIDE1,PEPTIDE1,6:R3-13:R3$$$V2.0) was tested, and the “Hemolysis at 0.2 g/L” value [1] was less than 1%, the “Klebsiella pneumoniae SSI3010 MIC” value [2] was 0.25 µg/mL and the “Escherichia coli ATCC 25922 MIC” value [3] was 0.0625 µg/mL. For the same molecule, the “Escherichia coli MCR-1 Af 45 MIC” value [4] was 0.0625 µg/mL.

For CC[C@H](C)[C@H](NC(=O)[C@@H]1C[C@@H](O)CN1C(=O)[C@@H](N)C(C)C)C(=O)N[C@H](C(=O)N[C@@H](Cc1ccc(O)cc1)C(=O)N[C@@H]1C(=O)N[C@@H](CC(N)=O)C(=O)N[C@@H](CCCNC(=N)N)C(=O)N[C@@H](CCN)C(=O)N[C@@H](CO)C(=O)N[C@H](CCN)C(=O)N[C@@H](CCCCN)C(=O)N[C@H](C(=O)N[C@@H](CCN)C(=O)N[C@@H](CCN)C(=O)N[C@@H](Cc2ccc(O)cc2)C(=O)O)CSSC1(C)C)[C@@H](C)O [Example 77, Val-Hyp-Ile-Thr-Tyr-Pen-Asn-Arg-Dab-Ser-^DDab-Lys-Cys-Dab-Dab-Tyr] (HELM PEPTIDE1{V.[Hyp].I.T.Y.[Pen].N.R.[Dab].S.[NCC[C@@H](N[*:1])C(=O)[*:2]].K.C.[Dab].[Dab].Y}$PEPTIDE1,PEPTIDE1,6:R3-13:R3$$$V2.0), the “Hemolysis at 0.2 g/L” value [1] was less than 1%, the “Klebsiella pneumoniae SSI3010 MIC” value [2] was 0.125 µg/mL and the “Escherichia coli ATCC 25922 MIC” value [3] was 0.0625 µg/mL. For the same molecule, the “Escherichia coli MCR-1 Af 45 MIC” value [4] was 0.0625 µg/mL.

CC[C@H](C)[C@H](NC(=O)[C@@H](NC(=O)[C@@H]1C[C@@H](O)CN1C(=O)[C@@H](N)C(C)C)[C@@H](C)CC)C(=O)N[C@@H](Cc1ccc(O)cc1)C(=O)N[C@@H]1C(=O)N[C@@H](CC(N)=O)C(=O)N[C@@H](CCCNC(=N)N)C(=O)N[C@@H](CCN)C(=O)N[C@@H]([C@@H](C)O)C(=O)N[C@H](CCN)C(=O)N[C@@H](CCCN)C(=O)N[C@H](C(=O)N[C@@H](CCN)C(=O)N[C@@H](CCCNC(=N)N)C(=O)N[C@@H](Cc2ccc(O)cc2)C(=O)O)CSSC1(C)C [Example 78, Val-Hyp-Ile-Ile-Tyr-Pen-Asn-Arg-Dab-Thr-^DDab-Orn-Cys-Dab-Arg-Tyr] (HELM PEPTIDE1{V.[Hyp].I.I.Y.[Pen].N.R.[Dab].T.[NCC[C@@H](N[*:1])C(=O)[*:2]].[Orn].C.[Dab].R.Y}$PEPTIDE1,PEPTIDE1,6:R3-13:R3$$$V2.0) was tested, and the “Hemolysis at 0.2 g/L” value [1] was less than 1%, the “Klebsiella pneumoniae SSI3010 MIC” value [2] was 0.125 µg/mL and the “Escherichia coli ATCC 25922 MIC” value [3] was 0.0625 µg/mL. For the same molecule, the “Escherichia coli MCR-1 Af 45 MIC” value [4] was 0.0625 µg/mL.

With CC[C@H](N)C(=O)N1C[C@H](O)C[C@H]1C(=O)N[C@H](C(=O)N[C@H](C(=O)N[C@@H](Cc1ccc(O)cc1)C(=O)N[C@@H]1C(=O)N[C@@H](CC(N)=O)C(=O)N[C@@H](CCCNC(=N)N)C(=O)N[C@@H](CCN)C(=O)N[C@@H]([C@@H](C)O)C(=O)N[C@H](CCN)C(=O)N[C@@H](CCCCN)C(=O)N[C@H](C(=O)N[C@@H](CCN)C(=O)N[C@@H](CCCNC(=N)N)C(=O)N[C@@H](Cc2ccc(O)cc2)C(=O)O)CSSC1(C)C)[C@@H](C)CC)[C@@H](C)CC [Example 79, Abu-Hyp-Ile-Ile-Tyr-Pen-Asn-Arg-Dab-Thr-^DDab-Lys-Cys-Dab-Arg-Tyr] (HELM PEPTIDE1{[Abu].[Hyp].I.I.Y.[Pen].N.R.[Dab].T.[NCC[C@@H](N[*:1])C(=O)[*:2]].K.C.[Dab].R.Y}$PEPTIDE1,PEPTIDE1,6:R3-13:R3$$$V2.0) the “Hemolysis at 0.2 g/L” value [1] was less than 1%, the “Klebsiella pneumoniae SSI3010 MIC” value [2] was 0.5 µg/mL and the “Escherichia coli ATCC 25922 MIC” value [3] was 0.125 µg/mL. The “Escherichia coli MCR-1 Af 45 MIC” value [4] was 0.125 µg/mL.

With CC[C@H](C)[C@H](NC(=O)[C@@H]1CCCN1C(=O)[C@@H](N)C(C)C)C(=O)N[C@H](C(=O)N[C@@H](Cc1ccc(O)cc1)C(=O)N[C@@H]1C(=O)N[C@@H](CC(N)=O)C(=O)N[C@@H](CCCNC(=N)N)C(=O)N[C@@H](CCN)C(=O)N[C@@H]([C@@H](C)O)C(=O)N[C@H](CCN)C(=O)N[C@@H](CCCCN)C(=O)N[C@H](C(=O)N[C@@H](CCN)C(=O)N[C@@H](CCCNC(=N)N)C(=O)N[C@@H](Cc2ccc(O)cc2)C(=O)O)CSSC1(C)C)[C@@H](C)O [Example 80, Val-Pro-Ile-Thr-Tyr-Pen-Asn-Arg-Dab-Thr-^DDab-Lys-Cys-Dab-Arg-Tyr] (HELM PEPTIDE1{V.P.I.T.Y.[Pen].N.R.[Dab].T.[NCC[C@@H](N[*:1])C(=O)[*:2]].K.C.[Dab].R.Y}$PEPTIDE1,PEPTIDE1,6:R3-13:R3$$$V2.0) the “Hemolysis at 0.2 g/L” value [1] was less than 1%, the “Klebsiella pneumoniae SSI3010 MIC” value [2] was 0.25 µg/mL and the “Escherichia coli ATCC 25922 MIC” value [3] was 0.125 µg/mL. The “Escherichia coli MCR-1 Af 45 MIC” value [4] was 0.0625 µg/mL.

With CC[C@H](C)[C@H](NC(=O)[C@@H]1C[C@@H](O)CN1C(=O)[C@@H](N)C(C)C)C(=O)N[C@@H](CCN)C(=O)N[C@@H](Cc1ccc(O)cc1)C(=O)N[C@@H]1C(=O)N[C@@H](CC(N)=O)C(=O)N[C@@H](CCCNC(=N)N)C(=O)N[C@@H](CCN)C(=O)N[C@@H](CO)C(=O)N[C@H](CCN)C(=O)N[C@@H](CCCCN)C(=O)N[C@H](C(=O)N[C@@H](CCN)C(=O)N[C@@H](CCN)C(=O)N[C@@H](Cc2ccc(O)cc2)C(=O)O)CSSC1(C)C [Example 81, Val-Hyp-Ile-Dab-Tyr-Pen-Asn-Arg-Dab-Ser-^DDab-Lys-Cys-Dab-Dab-Tyr] (HELM PEPTIDE1{V.[Hyp].I.[Dab].Y.[Pen].N.R.[Dab].S.[NCC[C@@H](N[*:1])C(=O)[*:2]].K.C.[Dab].[Dab].Y}$PEPTIDE1,PEPTIDE1,6:R3-13:R3$$$V2.0) the “Hemolysis at 0.2 g/L” value [1] was less than 1%, the “Klebsiella pneumoniae SSI3010 MIC” value [2] was 0.5 µg/mL and the “Escherichia coli ATCC 25922 MIC” value [3] was 0.125 µg/mL. The “Escherichia coli MCR-1 Af 45 MIC” value [4] was 0.0625 µg/mL.

CC[C@H](C)[C@H](NC(=O)[C@@H](NC(=O)[C@@H]1C[C@@H](O)CN1C(=O)[C@@H](N)C(C)C)[C@@H](C)CC)C(=O)N[C@@H](Cc1ccc(O)cc1)C(=O)N[C@@H]1C(=O)N[C@@H](CC(N)=O)C(=O)N[C@@H](CCCNC(=N)N)C(=O)N[C@@H](CCCCN)C(=O)N[C@@H]([C@@H](C)O)C(=O)N[C@H](CCN)C(=O)N[C@@H](CCCCN)C(=O)N[C@H](C(=O)N[C@@H](CCCCN)C(=O)N[C@@H](CCCNC(=N)N)C(=O)N[C@@H](Cc2ccc(O)cc2)C(=O)O)CSSC1(C)C [Example 82, Val-Hyp-Ile-Ile-Tyr-Pen-Asn-Arg-Lys-Thr-^DDab-Lys-Cys-Lys-Arg-Tyr] (HELM PEPTIDE1{V.[Hyp].I.I.Y.[Pen].N.R.K.T.[NCC[C@@H](N[*:1])C(=O)[*:2]].K.C.K.R.Y}$PEPTIDE1,PEPTIDE1,6:R3-13:R3$$$V2.0) was tested, and the “Hemolysis at 0.2 g/L” value [1] was less than 1%, the “Klebsiella pneumoniae SSI3010 MIC” value [2] was 0.25 µg/mL and the “Escherichia coli ATCC 25922 MIC” value [3] was 0.125 µg/mL. For the same molecule, the “Escherichia coli MCR-1 Af 45 MIC” value [4] was 0.125 µg/mL.

In the case of CC[C@H](C)[C@H](NC(=O)[C@@H](NC(=O)[C@@H]1C[C@@H](O)CN1C(=O)[C@@H](N)C(C)C)[C@@H](C)CC)C(=O)N[C@@H](Cc1ccc(O)cc1)C(=O)N[C@@H]1C(=O)N[C@@H](CC(N)=O)C(=O)N[C@@H](CCCNC(=N)N)C(=O)N[C@@H](CCN)C(=O)N[C@@H]([C@@H](C)O)C(=O)N[C@H](CCN)C(=O)N[C@@H]([C@@H](C)CC)C(=O)N[C@H](C(=O)N[C@@H](CCN)C(=O)N[C@@H](CCN)C(=O)N[C@@H](Cc2ccc(O)cc2)C(=O)O)CSSC1(C)C [Example 83, Val-Hyp-Ile-Ile-Tyr-Pen-Asn-Arg-Dab-Thr-^DDab-Ile-Cys-Dab-Dab-Tyr] (HELM PEPTIDE1{V.[Hyp].I.I.Y.[Pen].N.R.[Dab].T.[NCC[C@@H](N[*:1])C(=O)[*:2]].I.C.[Dab].[Dab].Y}$PEPTIDE1,PEPTIDE1,6:R3-13:R3$$$V2.0), the “Hemolysis at 0.2 g/L” value [1] is reported as less than 1%, the “Klebsiella pneumoniae SSI3010 MIC” value [2] is reported as 0.5 µg/mL and the “Escherichia coli ATCC 25922 MIC” value [3] is reported as 0.25 µg/mL. The “Escherichia coli MCR-1 Af 45 MIC” value [4] was 0.25 µg/mL.

Reference: patent publication US20240228555A9, “ANTIMICROBIAL PEPTIDOMIMETICS” (Basilea Pharmaceutica International AG, Allschwil, priority 2020, published 2024)
